Results: patent US20220259180A1, “BROAD SPECTRUM ANTIVIRAL COMPOUNDS TARGETING THE SKI COMPLEX” (priority 2019, published 2022)
“Also recorded” adds a separate entry of the source. Read-outs that look alike come from different tables or passages of the source.

How the values were obtained:
Influenza virus = assay type: cell-based, influenza A virus NL09 strain; conditions: for first experiment PFU/ml: 0.1% DMSO control 100000; for Flu titer (pfu/ml) / Antiviral activity against Influenza virus: A549 cells; for Flu titer (pfu/ml): plaque assay; for Antiviral activity against Influenza virus: screening at 50 μM, 10 μM (and 1 μM); for IC50: read-out: IC50 against IAV
MERS-CoV = assay type: cell-based, MERS-CoV (Jordan strain); conditions: Huh7 cells, MOI 0.1, 24 h; read-out: IC50 against MERS-CoV
[1] = tested on: Marburg virus Angola strain (MARV); assay type: cell-based; conditions: Huh7 cells, 48 h; read-out: IC50 against MARV
IAV NS1 mRNA = assay type: cell-based, influenza A virus
IAV = assay: Time of addition assay, IAV in A549 cells, plaque assay; assay type: cell-based, influenza A virus
A549 cells = conditions: 24 h, CellTiter-Glo
[2] = tested on: Ebola virus Makona strain (EBOV); assay type: cell-based; conditions: Huh7 cells, 48 h; read-out: IC50 against EBOV
Huh7 cells = conditions: 24 h, CellTiter-Glo
IAV NS1 = assay type: cell-based, influenza A virus
IAV RNA = assay: Multi-segment RT-PCR (M-RTPCR) of all IAV segments; assay type: cell-based, influenza A virus
SARS-CoV-2 mRNA = assay type: cell-based; conditions: two gene targets (N, RdRp)
SARS-CoV-2 = assay type: cell-based
SARS-CoV = assay type: cell-based; conditions: 24 h
[3] = 10 μM compound, DMSO (0.1%) control 153000
[4] = 50 μM compound, DMSO (0.5%) control 58700
[5] = 1 μm compound, DMSO (0.1%) control 153000

Structure (SMILES): COc1ccc(CNCCCSC)c(OCC(O)CN2CCN(C)CC2)c1 (centres unmarked) [18-16]
- first experiment PFU/ml (Influenza virus; 10 μM screen): 210000 PFU/ml

Structure (SMILES): COc1ccc(CNCCCSC)c(OCC(O)CN2CCCCCCC2)c1 (centres unmarked) [18-14]
- first experiment PFU/ml (Influenza virus; 10 μM screen): 44000 PFU/ml

Structure (SMILES): COc1ccc(CNC2CCCCC2)c(OCC(O)CN2CCN(C)CC2)c1 (centres unmarked) [18-10]
- first experiment PFU/ml (Influenza virus; 10 μM screen): 40000 PFU/ml

Structure (SMILES): COc1ccc(OC)c(Cc2nnc(CCC(=O)NC3CC(C)(C)CC(C)(C)C3)o2)c1 [compound 35434810, 3-4[5-(2,5-dimethoxybenzyl)-1,3,4-oxadiazol-2-yl]-N-(3,3,5,5-tetramethylcyclohexyl)propanamide]
- Flu titer (pfu/ml) (Influenza virus; [3]): 80000 pfu/ml
- Flu titer (pfu/ml) (Influenza virus; [4]): 130000 pfu/ml
- Flu titer (pfu/ml) (Influenza virus; [5]): 80000 pfu/ml

Structure (SMILES): COc1ccc(CNCCc2ccccc2F)c(OCC(O)CN2CCN(C)CC2)c1 (centres unmarked) [18-lead, 1-[2-({[2-(2-fluorophenyl)ethyl]amino}methyl)-5-methoxyphenoxy]-3-(4-methyl-1-piperazinyl)-2-propanol]
- first experiment PFU/ml (Influenza virus; 10 μM screen): 2000 PFU/ml
- 1-24-20 (triplicate wells) PFU/ml (Influenza virus; 10 μM screen, well 1, 0.1% DMSO control 23000): 1300 PFU/ml
- 1-24-20 (triplicate wells) PFU/ml (Influenza virus; 10 μM screen, well 2, 0.1% DMSO control 19000): 1000 PFU/ml
- 1-24-20 (triplicate wells) PFU/ml (Influenza virus; 10 μM screen, well 3, 0.1% DMSO control 29000): 4000 PFU/ml
- 1-24-20 (triplicate wells) PFU/ml (Influenza virus; 50 μM screen, well 1, 0.5% DMSO control 21000): 600 PFU/ml
- 1-24-20 (triplicate wells) PFU/ml (Influenza virus; 50 μM screen, well 2, 0.5% DMSO control 5300): 200 PFU/ml
- 1-24-20 (triplicate wells) PFU/ml (Influenza virus; 50 μM screen, well 3, 0.5% DMSO control 15000): 300 PFU/ml

Structure (SMILES): COc1ccc(CNCCc2ccccc2F)c(OCC(O)CN2CCN(C)CC2)c1 (centres unmarked) [UMB18]
- IC50 (MERS-CoV): ~5 µM
- IC50 [1]: ~16 µM
- NS1 mRNA (IAV NS1 mRNA): marked reduction in mRNA
- Inhibition of IAV, drug added 2 h after infection (+2 h) (IAV): marked reduction in the level of inhibition
- Antiviral activity against Influenza virus (Influenza virus): antiviral activity against influenza
- IC50 (Influenza virus): ~5 µM
- Cell cytotoxicity at antiviral concentrations (A549 cells): minimal toxicity
- IC50 [2]: ~5 µM
- Cell cytotoxicity at antiviral concentrations (Huh7 cells): minimal toxicity
- NS1 protein (IAV NS1): lack of NS1 protein

Structure (SMILES): OCCN(Cc1nc(Cc2cccc(C(F)(F)F)c2)no1)CC12CC3CC(CC(C3)C1)C2 [compound 61121342]
- Flu titer (pfu/ml) (Influenza virus; [3]): 130000 pfu/ml
- Flu titer (pfu/ml) (Influenza virus; [4]): 50000 pfu/ml
- Flu titer (pfu/ml) (Influenza virus; [5]): 9000 pfu/ml

Structure (SMILES): COc1ccc(CNCC(F)(F)F)c(OCC(O)CN2CCN(C)CC2)c1 (centres unmarked) [18-12]
- first experiment PFU/ml (Influenza virus; 10 μM screen): 30000 PFU/ml

Structure (SMILES): COc1ccc(CNCC2CCCCC2)c(OCC(O)CN2CCN(C)CC2)c1 (centres unmarked) [18-5]
- first experiment PFU/ml (Influenza virus; 10 μM screen): 60000 PFU/ml

Structure (SMILES): COc1ccc(CNCCc2ccccc2C)c(OCC(O)CN2CCN(C)CC2)c1 (centres unmarked) [18-2]
- first experiment PFU/ml (Influenza virus; 10 μM screen): 500 PFU/ml
- Antiviral activity against Influenza virus (Influenza virus; listed as 27092311): increased activity

Structure (SMILES): COc1ccc(CNC2Cc3ccccc3C2)c(OCC(O)CN2CCN(C)CC2)c1 (centres unmarked) [18-3]
- first experiment PFU/ml (Influenza virus; 10 μM screen): 12000 PFU/ml

Structure (SMILES): COc1ccc(CNC2CCCC2)c(OCC(O)CN2CCN(C)CC2)c1 (centres unmarked) [18-1]
- first experiment PFU/ml (Influenza virus; 10 μM screen): 60000 PFU/ml

Structure (SMILES): COc1ccc(CNCCCn2ccnc2)c(OCC(O)CN2CCN(C)CC2)c1 (centres unmarked) [18-15]
- Influenza virus plaque assay titer, 10 μM (Influenza virus; compound at 10 μM, DMSO control 100000): 36000 PFU/virus/ml

Structure (SMILES): COc1ccc(CNCCc2ccccc2Cl)c(OCC(O)CN2CCN(C)CC2)c1 (centres unmarked) [18-4]
- first experiment PFU/ml (Influenza virus; 10 μM screen): 7000 PFU/ml

Structure (SMILES): COc1ccc(CNC2CCCCCCC2)c(OCC(O)CN2CCN(C)CC2)c1 (centres unmarked) [18-8]
- first experiment PFU/ml (Influenza virus; 10 μM screen): 3000 PFU/ml

Structure (SMILES): COc1ccc(CNCCc2ccccc2C)c(OCC(O)CN2CCN(C)CC2)c1 (centres unmarked) [UMB18-2]
- IC50 (MERS-CoV): ~5 µM
- NS1 mRNA (IAV NS1 mRNA): marked reduction in mRNA
- Inhibition of IAV, drug added 2 h after infection (+2 h) (IAV): marked reduction in the level of inhibition
- IC50 (Influenza virus): ~5 µM
- IAV RNA amplified by M-RTPCR (IAV RNA): total loss of IAV RNA
- SARS-CoV-2 mRNA production (SARS-CoV-2 mRNA): capable of inhibiting SARS-CoV-2 mRNA production
- Inhibition of SARS-CoV-2 virus production (TCID50) (SARS-CoV-2): capable of inhibiting virus production; also recorded: less so
- NS1 protein (IAV NS1): lack of NS1 protein
- Inhibition of SARS-CoV virus production (SARS-CoV; 10 μM): inhibition, but to a lesser extent
- Reduction in SARS-CoV virus production (SARS-CoV; 50 μM): 1 log

Structure (SMILES): COc1ccc(CNCCCn2ccnc2C)c(OCC(O)CN2CCN(C)CC2)c1 (centres unmarked) [18-7]
- first experiment PFU/ml (Influenza virus; 10 μM screen): 240000 PFU/ml

Structure (SMILES): COc1ccc(CNCCc2cccnc2)c(OCC(O)CN2CCCCCCC2)c1 (centres unmarked) [18-9]
- first experiment PFU/ml (Influenza virus; 10 μM screen): 200000 PFU/ml

Structure (SMILES): COc1ccc(CNCCCn2cccn2)c(OCC(O)CN2CCN(C)CC2)c1 (centres unmarked) [18-13]
- first experiment PFU/ml (Influenza virus; 10 μM screen): 40000 PFU/ml

Structure (SMILES): COCCCNCc1ccc(OC)cc1OCC(O)CN1CCN(C)CC1 (centres unmarked) [18-11]
- first experiment PFU/ml (Influenza virus; 10 μM screen): 100000 PFU/ml

Structure (SMILES): COc1ccc(CNCCc2ccccc2)c(OCC(O)CN2CCN(C)CC2)c1 (centres unmarked) [18-6]
- first experiment PFU/ml (Influenza virus; 10 μM screen): 10000 PFU/ml
